Where two headings read alike, the source gives them in different places.
Key:
[1] = system: human multiple myeloma (RPMI 8226) cell line; experiment: MTT cell proliferation assay, RPMI 8226; type: cell-based; conditions: antiproliferative, 96 h, read-out: IC50 ± SD RPMI 8226
Method: The influence of the tested compounds on the proliferation of RPMI 8226 and A549 cells was estimated with the MTT assay as described previously. Briefly, 1 × 10^4 cells/mL (RPMI 8226) or 0.2 × 10^4 (A549) cells per well were seeded into 96-well plates and cultured (in growth medium containing 10% FBS) with different concentrations of each compound ranging from 3.125 to 100 μM. The control cells were treated with the vehicle DMSO (0.1%).

RPMI 8226 cells [2] = experiment: Annexin V-FITC/PI cell death by flow cytometry, RPMI 8226; type: cell-based, human; conditions: for IC50: Homo sapiens, read-out: IC50 for apoptosis (concentration inducing apoptosis in 50% of cells)
Method: The quantitative analysis of compound 3a-induced cell death was performed using an Annexin V-fluorescein isothiocyanate (FITC)/propidium iodide (PI) apoptosis kit (BD Biosciences, BD Pharmingen™, San Jose, CA, USA) as previously described. Briefly, the RPMI 8226 or A549 cells growing on the 6-well plates in the culture medium with 2% FBS were subjected to increasing concentrations of compound 3a (2.5, 5, 10, 20, or 40 μM) for 24 and 48 h. After the treatment, the cells were harvested, centrifuged at 1000 rpm and room temperature (RT) for 5 min, washed twice with PBS, and stained with […] of AnnexinV-FITC and […] of PI. After incubation for 15 min in the dark at room temperature, the cells were immediately analyzed using FACS Calibur. The intensity of fluorescence of AnnexinV-FITC and PI stained cells was determined by acquisition of at least 10,000 events per sample within the rate >60 events/s. The FACS data were analyzed using Cell Quest Pro Version 6.0. for the Macintosh operating system. The data were analyzed to determine the percentage of viable, early apoptotic, late apoptotic, and necrotic cells.

mushroom tyrosinase = mushroom tyrosinase (Agaricus bisporus, UniProt C7FF04); experiment: Kinetic analysis of the inhibition of tyrosinase (Lineweaver-Burk); type: biochemical; conditions: tyrosinase-catalyzed oxidation of L-DOPA
Method: To understand the mechanism of mushroom tyrosinase inhibition by new compounds 3a–3h, enzyme inhibition kinetic studies were performed. The mechanism of tyrosinase inhibition was determined using Lineweaver–Burk plot, which is a useful graphical method for analysis of the Michaelis–Menten equations used to determine the inhibition constant […].
A series of experiments were performed to determine the inhibition kinetics of compounds by following the already reported method. The inhibitor concentrations for compounds were 50 and 100 µM. Substrate L-DOPA concentration was between 100 and 250 µM in all kinetic studies. Maximal initial velocity was determined from the initial linear portion of absorbance up to ten minutes after addition of enzyme. The inhibition type of the enzyme, Michaelis constant (KM) and maximal velocity (Vmax) were determined by Lineweaver–Burk plots of inverse of velocities (1/V) versus inverse of substrate concentration 1/[L-DOPA] mM^−1.

RPMI 8226 cells [3] = type: cell-based, human
Method: The RPMI 8226 or A549 cells were seeded in 6-well plates in medium containing 10% FBS without or with compound 3a (2.5, 5, 10, 20, or 40 µM). After 24-h and 48-h treatment, the cell cycle analysis was performed by determination of the DNA contents on the basis of PI staining as described previously. Briefly, the cells were harvested, washed with PBS, and fixed overnight with 80% ethanol at −20 °C. After that, the cells were washed with PBS and stained with PI using PI/RNase Staining Buffer (BD Biosciences, BD Pharmingen™, USA) for 30 min in darkness at RT. Next, the stained cells were analyzed using FACS Calibur. The intensity of PI fluorescence of individual nuclei was determined and at least 10 000 events were measured within an acquisition rate >60 events/s. The FACS data were analyzed using Cell Quest Pro Version 6.0 (BD Biosciences, San Jose, CA, USA). for the Macintosh operating system. The data were analyzed to determine the percentage of cells at the sub-G1 phase (apoptotic cells) and each phase of the cell cycle (G1, S, and G2/M).

Sequence of mushroom tyrosinase (C7FF04 1-392): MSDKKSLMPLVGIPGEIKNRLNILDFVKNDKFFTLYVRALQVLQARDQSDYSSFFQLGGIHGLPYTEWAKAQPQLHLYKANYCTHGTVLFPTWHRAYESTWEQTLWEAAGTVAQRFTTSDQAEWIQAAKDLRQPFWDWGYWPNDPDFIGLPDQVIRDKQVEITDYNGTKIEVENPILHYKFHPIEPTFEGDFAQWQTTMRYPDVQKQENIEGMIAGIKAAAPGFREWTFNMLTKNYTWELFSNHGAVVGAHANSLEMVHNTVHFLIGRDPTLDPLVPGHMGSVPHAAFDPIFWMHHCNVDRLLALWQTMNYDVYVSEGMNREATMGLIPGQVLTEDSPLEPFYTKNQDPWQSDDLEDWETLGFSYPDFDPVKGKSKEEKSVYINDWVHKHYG

SMILES: CN1C2CCC1CC(=NNc1nc(-c3ccc(I)cc3)cs1)C2 [Compound 3a, 4-(4-Iodophenyl)-2-(2-(8-methyl-8-azabicyclo[3.2.1]octan-3-ylidene)hydrazinyl)thiazole]
- IC50 [1]: 9.32 ± 0.71 µM
- IC50 (RPMI 8226 cells [2]; RPMI 8226, 24 h): 14.6 µM
- IC50 (RPMI 8226 cells [2]; RPMI 8226, 48 h): 7.91 µM
- Apoptosis (early + late) (RPMI 8226 cells [2]; RPMI 8226, 2.5 µM, 24 hours): 19.53 ± 2.64 % of cells ± SD
- Necrosis (RPMI 8226 cells [2]; RPMI 8226, 2.5 µM, 24 hours): 3.62 ± 0.87 % of cells ± SD
- Apoptosis (early + late) (RPMI 8226 cells [2]; RPMI 8226, 2.5 µM, 48 hours): 20.93 ± 1.83 % of cells ± SD
- Necrosis (RPMI 8226 cells [2]; RPMI 8226, 2.5 µM, 48 hours): 5.54 ± 0.44 % of cells ± SD
- Apoptosis (early + late) (RPMI 8226 cells [2]; RPMI 8226, 5 µM, 24 hours): 22.23 ± 6.01 % of cells ± SD
- Necrosis (RPMI 8226 cells [2]; RPMI 8226, 5 µM, 24 hours): 6.35 ± 2.57 % of cells ± SD
- Apoptosis (early + late) (RPMI 8226 cells [2]; RPMI 8226, 5 µM, 48 hours): 31.71 ± 11.36 % of cells ± SD
- Necrosis (RPMI 8226 cells [2]; RPMI 8226, 5 µM, 48 hours): 7.53 ± 2.61 % of cells ± SD
- Apoptosis (early + late) (RPMI 8226 cells [2]; RPMI 8226, 10 µM, 24 hours): 39.58 ± 9.33 % of cells ± SD
- Necrosis (RPMI 8226 cells [2]; RPMI 8226, 10 µM, 24 hours): 9.94 ± 2.73 % of cells ± SD
- Apoptosis (early + late) (RPMI 8226 cells [2]; RPMI 8226, 10 µM, 48 hours): 58.25 ± 21.57 % of cells ± SD
- Necrosis (RPMI 8226 cells [2]; RPMI 8226, 10 µM, 48 hours): 11.08 ± 5.38 % of cells ± SD
- Apoptosis (early + late) (RPMI 8226 cells [2]; RPMI 8226, 20 µM, 24 hours): 60.41 ± 0.99 % of cells ± SD
- Necrosis (RPMI 8226 cells [2]; RPMI 8226, 20 µM, 24 hours): 18.5 ± 2.38 % of cells ± SD
- Apoptosis (early + late) (RPMI 8226 cells [2]; RPMI 8226, 20 µM, 48 hours): 76.93 ± 14.34 % of cells ± SD
- Necrosis (RPMI 8226 cells [2]; RPMI 8226, 20 µM, 48 hours): 20.18 ± 11.99 % of cells ± SD
- Inhibitory Mechanism (mushroom tyrosinase): mixed
- Cell cycle distribution G0/G1 (RPMI 8226 cells [3]; RPMI 8226, 2.5 µM, 24 h): 41.14±1.03 % of cells
- Cell cycle distribution G2 (RPMI 8226 cells [3]; RPMI 8226, 2.5 µM, 24 h): 22.35±1.19 % of cells
- Cell cycle distribution S (RPMI 8226 cells [3]; RPMI 8226, 2.5 µM, 24 h): 21.59±1.77 % of cells
- Cell cycle distribution Sub-G1 (RPMI 8226 cells [3]; RPMI 8226, 2.5 µM, 24 h): 15.53±2.23 % of cells
- Cell cycle distribution G0/G1 (RPMI 8226 cells [3]; RPMI 8226, 2.5 µM, 48 h): 35.8±1.49 % of cells
- Cell cycle distribution G2 (RPMI 8226 cells [3]; RPMI 8226, 2.5 µM, 48 h): 16.99±2 % of cells
- Cell cycle distribution S (RPMI 8226 cells [3]; RPMI 8226, 2.5 µM, 48 h): 26.22±0.97 % of cells
- Cell cycle distribution Sub-G1 (RPMI 8226 cells [3]; RPMI 8226, 2.5 µM, 48 h): 21.49±0.94 % of cells
- Cell cycle distribution G0/G1 (RPMI 8226 cells [3]; RPMI 8226, 5 µM, 24 h): 38.23±6.83 % of cells
- Cell cycle distribution G2 (RPMI 8226 cells [3]; RPMI 8226, 5 µM, 24 h): 21.31±4.02 % of cells
- Cell cycle distribution S (RPMI 8226 cells [3]; RPMI 8226, 5 µM, 24 h): 18.68±2.58 % of cells
- Cell cycle distribution Sub-G1 (RPMI 8226 cells [3]; RPMI 8226, 5 µM, 24 h): 21.32±6.2 % of cells
- Cell cycle distribution G0/G1 (RPMI 8226 cells [3]; RPMI 8226, 5 µM, 48 h): 40.3±3.15 % of cells
- Cell cycle distribution G2 (RPMI 8226 cells [3]; RPMI 8226, 5 µM, 48 h): 15.23±5.04 % of cells
- Cell cycle distribution S (RPMI 8226 cells [3]; RPMI 8226, 5 µM, 48 h): 19.12±2.51 % of cells
- Cell cycle distribution Sub-G1 (RPMI 8226 cells [3]; RPMI 8226, 5 µM, 48 h): 25.53±7.59 % of cells
- Cell cycle distribution G0/G1 (RPMI 8226 cells [3]; RPMI 8226, 10 µM, 24 h): 38.08±9.38 % of cells
- Cell cycle distribution G2 (RPMI 8226 cells [3]; RPMI 8226, 10 µM, 24 h): 17.45±2.75 % of cells
- Cell cycle distribution S (RPMI 8226 cells [3]; RPMI 8226, 10 µM, 24 h): 21.4±3.5 % of cells
- Cell cycle distribution Sub-G1 (RPMI 8226 cells [3]; RPMI 8226, 10 µM, 24 h): 23.53±7.04 % of cells
- Cell cycle distribution G0/G1 (RPMI 8226 cells [3]; RPMI 8226, 10 µM, 48 h): 38.5±2.77 % of cells
- Cell cycle distribution G2 (RPMI 8226 cells [3]; RPMI 8226, 10 µM, 48 h): 18.78±2.32 % of cells
- Cell cycle distribution S (RPMI 8226 cells [3]; RPMI 8226, 10 µM, 48 h): 18.61±4.5 % of cells
- Cell cycle distribution Sub-G1 (RPMI 8226 cells [3]; RPMI 8226, 10 µM, 48 h): 28.01±5.09 % of cells
- Cell cycle distribution G0/G1 (RPMI 8226 cells [3]; RPMI 8226, 20 µM, 24 h): 42.63±4.03 % of cells
- Cell cycle distribution G2 (RPMI 8226 cells [3]; RPMI 8226, 20 µM, 24 h): 15.7±5.79 % of cells
- Cell cycle distribution S (RPMI 8226 cells [3]; RPMI 8226, 20 µM, 24 h): 19.83±2.92 % of cells
- Cell cycle distribution Sub-G1 (RPMI 8226 cells [3]; RPMI 8226, 20 µM, 24 h): 24.09±2.62 % of cells
- Cell cycle distribution G0/G1 (RPMI 8226 cells [3]; RPMI 8226, 20 µM, 48 h): 31.66±10.94 % of cells
- Cell cycle distribution G2 (RPMI 8226 cells [3]; RPMI 8226, 20 µM, 48 h): 17.47±1.42 % of cells
- Cell cycle distribution S (RPMI 8226 cells [3]; RPMI 8226, 20 µM, 48 h): 20.74±2.14 % of cells
- Cell cycle distribution Sub-G1 (RPMI 8226 cells [3]; RPMI 8226, 20 µM, 48 h): 29.68±10.49 % of cells
